From patent publication US11076594B2, “Pyrazolone compound or salt thereof, preparation method therefor, herbicide composition and use thereof” (QINGDAO KINGAGROOT CHEMICAL COMPOUNDS CO., LTD., priority 2015, dated 2021)
One block for each compound: values may come before it.

Assays:
Format in all cases: in vivo
Settings in all cases: post-emergence spray at 4-5 leaf stage, 250 g/ha active ingredient with 450 kg/ha water, rated after 3 weeks in greenhouse
bidens bipinnata = assay: weed control effect in post-emergence stage (Table 1); design: key: Level 10: completely dead; Level 9: above 95% growth control rate; Level 8: above 90% growth control rate; Level 7: above 80% growth control rate; Level 6: above 70% growth control rate; Level 5: above 60% growth control rate; Level 4: above 50% growth control rate; Level 3: above 20% growth control rate; Level 2: 5%-20% growth control rate; Level 1: below 5% growth control rate
Method in brief: (§1)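 Read-out is growth control rate based on fresh weight, determined 3 weeks after treatment. Plants raised from seed in potted soil (0.5-2 cm cover) in greenhouse were sprayed 2-3 weeks post-sowing at 4-5 leaves with acetone/Tween 80 aqueous compound solutions.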

echinochloa = assay: as above; design: key: Level 10: completely dead; Level 9: above 95% growth control rate; Level 8: above 90% growth control rate; Level 7: above 80% growth control rate; Level 6: above 70% growth control rate; Level 5: above 60% growth control rate; Level 4: above 50% growth control rate; Level 3: above 20% growth control rate; Level 2: 5%-20% growth control rate; Level 1: below 5% growth control rate
Method in brief: as §1

Indian mallow = assay: as above; design: key: Level 10: completely dead; Level 9: above 95% growth control rate; Level 8: above 90% growth control rate; Level 7: above 80% growth control rate; Level 6: above 70% growth control rate; Level 5: above 60% growth control rate; Level 4: above 50% growth control rate; Level 3: above 20% growth control rate; Level 2: 5%-20% growth control rate; Level 1: below 5% growth control rate
Method in brief: as §1

foxtail = assay: as above; design: key: Level 10: completely dead; Level 9: above 95% growth control rate; Level 8: above 90% growth control rate; Level 7: above 80% growth control rate; Level 6: above 70% growth control rate; Level 5: above 60% growth control rate; Level 4: above 50% growth control rate; Level 3: above 20% growth control rate; Level 2: 5%-20% growth control rate; Level 1: below 5% growth control rate
Method in brief: as §1

rorippa indica = assay: as above; design: key: Level 10: completely dead; Level 9: above 95% growth control rate; Level 8: above 90% growth control rate; Level 7: above 80% growth control rate; Level 6: above 70% growth control rate; Level 5: above 60% growth control rate; Level 4: above 50% growth control rate; Level 3: above 20% growth control rate; Level 2: 5%-20% growth control rate; Level 1: below 5% growth control rate
Method in brief: as §1

crab grass = assay: as above; design: key: Level 10: completely dead; Level 9: above 95% growth control rate; Level 8: above 90% growth control rate; Level 7: above 80% growth control rate; Level 6: above 70% growth control rate; Level 5: above 60% growth control rate; Level 4: above 50% growth control rate; Level 3: above 20% growth control rate; Level 2: 5%-20% growth control rate; Level 1: below 5% growth control rate
Method in brief: as §1

rice = assay: post-emergence stage experiment, crop (Table 1); design: key: Level 10: completely dead; Level 9: above 95% growth control rate; Level 8: above 90% growth control rate; Level 7: above 80% growth control rate; Level 6: above 70% growth control rate; Level 5: above 60% growth control rate; Level 4: above 50% growth control rate; Level 3: above 20% growth control rate; Level 2: 5%-20% growth control rate; Level 1: below 5% growth control rate
Method in brief: as §1

wheat = assay: post-emergence stage experiment, crop (Table 1)
Method in brief: as §1

corn = assay: post-emergence stage experiment, crop (Table 1)
Method in brief: as §1

SMILES: Cc1cnn(-c2c(C(F)(F)F)ccc(C(=O)c3cnn(C)c3O)c2Cl)c1 [Compound 080]
weed control effect, Bidens bipinnata (level) (bidens bipinnata): 8 (Level 8: above 90% growth control rate)
weed control effect, Echinochloa (level) (echinochloa): 5 (Level 5: above 60% growth control rate)
weed control effect, Indian mallow (level) (Indian mallow): 7 (Level 7: above 80% growth control rate)
weed control effect, Green foxtail (level) (foxtail): 10
weed control effect, Rorippa indica (level) (rorippa indica): 7 (Level 7: above 80% growth control rate)
weed control effect, Crab grass (level) (crab grass): 6 (Level 6: above 70% growth control rate)
effect on crop, Rice (level) (rice): 1 (Level 1: below 5% growth control rate)
effect on crop, Wheat (level) (wheat): 2 (Level 2: 5%-20% growth control rate)
effect on crop, Corn (level) (corn): 3 (Level 3: above 20% growth control rate)

SMILES: CC(=O)Oc1c(C(=O)c2ccc(C(F)(F)F)c(N3CCCCC3=O)c2Cl)cnn1C [Compound 030]
weed control effect, Bidens bipinnata (level) (bidens bipinnata): 5 (Level 5: above 60% growth control rate)
weed control effect, Echinochloa (level) (echinochloa): 5 (Level 5: above 60% growth control rate)
weed control effect, Indian mallow (level) (Indian mallow): 6 (Level 6: above 70% growth control rate)
weed control effect, Green foxtail (level) (foxtail): 9 (Level 9: above 95% growth control rate)
weed control effect, Rorippa indica (level) (rorippa indica): 10
weed control effect, Crab grass (level) (crab grass): 8 (Level 8: above 90% growth control rate)
effect on crop, Rice (level) (rice): 1 (Level 1: below 5% growth control rate)
effect on crop, Wheat (level) (wheat): 4 (Level 4: above 50% growth control rate)
effect on crop, Corn (level) (corn): 9 (Level 9: above 95% growth control rate)

SMILES: Cn1ncc(C(=O)c2ccc(C(F)(F)F)c(N3CCCC3=O)c2Cl)c1O [Compound 014]
weed control effect, Bidens bipinnata (level) (bidens bipinnata): 8 (Level 8: above 90% growth control rate)
weed control effect, Echinochloa (level) (echinochloa): 5 (Level 5: above 60% growth control rate)
weed control effect, Indian mallow (level) (Indian mallow): 7 (Level 7: above 80% growth control rate)
weed control effect, Green foxtail (level) (foxtail): 10
weed control effect, Rorippa indica (level) (rorippa indica): 10
weed control effect, Crab grass (level) (crab grass): 10
effect on crop, Rice (level) (rice): 3 (Level 3: above 20% growth control rate)
effect on crop, Wheat (level) (wheat): 3 (Level 3: above 20% growth control rate)
effect on crop, Corn (level) (corn): 8 (Level 8: above 90% growth control rate)

SMILES: CCn1ncc(C(=O)c2ccc(C(F)(F)F)c(-n3cccn3)c2Cl)c1OC(=O)c1cn(C)nc1C [Compound 127]
weed control effect, Bidens bipinnata (level) (bidens bipinnata): 10
weed control effect, Echinochloa (level) (echinochloa): 10
weed control effect, Indian mallow (level) (Indian mallow): 10
weed control effect, Green foxtail (level) (foxtail): 10
weed control effect, Rorippa indica (level) (rorippa indica): 10
weed control effect, Crab grass (level) (crab grass): 3 (Level 3: above 20% growth control rate)
effect on crop, Rice (level) (rice): 7 (Level 7: above 80% growth control rate)
effect on crop, Wheat (level) (wheat): 1 (Level 1: below 5% growth control rate)
effect on crop, Corn (level) (corn): 1 (Level 1: below 5% growth control rate)

Now from value to compound, other results behind:

effect on crop, Rice (level) (rice): 10
effect on crop, Corn (level) (corn): 2 (Level 2: 5%-20% growth control rate)
SMILES: CCc1nn(C)c(OC(=O)c2cn(C)nc2C)c1C(=O)c1ccc(C(F)(F)F)c(N2CCCC2=O)c1Cl [Compound 101]
weed control effect, Bidens bipinnata (level) (bidens bipinnata): 9 (Level 9: above 95% growth control rate)
weed control effect, Echinochloa (level) (echinochloa): 10
weed control effect, Indian mallow (level) (Indian mallow): 10
weed control effect, Green foxtail (level) (foxtail): 10
weed control effect, Rorippa indica (level) (rorippa indica): 10
weed control effect, Crab grass (level) (crab grass): 4 (Level 4: above 50% growth control rate)
effect on crop, Wheat (level) (wheat): 3 (Level 3: above 20% growth control rate)

effect on crop, Wheat (level) (wheat): 2 (Level 2: 5%-20% growth control rate)
SMILES: CCc1nn(CC)c(OC(=O)c2cn(C)nc2C)c1C(=O)c1ccc(C(F)(F)F)c(-n2cccn2)c1Cl [Compound 133]
weed control effect, Bidens bipinnata (level) (bidens bipinnata): 8 (Level 8: above 90% growth control rate)
weed control effect, Echinochloa (level) (echinochloa): 10
weed control effect, Indian mallow (level) (Indian mallow): 10
weed control effect, Green foxtail (level) (foxtail): 8 (Level 8: above 90% growth control rate)
weed control effect, Rorippa indica (level) (rorippa indica): 4 (Level 4: above 50% growth control rate)
weed control effect, Crab grass (level) (crab grass): 2 (Level 2: 5%-20% growth control rate)
effect on crop, Rice (level) (rice): 8 (Level 8: above 90% growth control rate)
effect on crop, Corn (level) (corn): 4 (Level 4: above 50% growth control rate)

effect on crop, Wheat (level) (wheat): 0
effect on crop, Corn (level) (corn): 0
SMILES: CCOC(=O)Oc1c(C(=O)c2ccc(C(F)(F)F)c(-n3cc(C)cn3)c2Cl)c(C)nn1C [Compound 085]
weed control effect, Bidens bipinnata (level) (bidens bipinnata): 10
weed control effect, Echinochloa (level) (echinochloa): 9 (Level 9: above 95% growth control rate)
weed control effect, Indian mallow (level) (Indian mallow): 10
weed control effect, Green foxtail (level) (foxtail): 10
weed control effect, Rorippa indica (level) (rorippa indica): 2 (Level 2: 5%-20% growth control rate)
weed control effect, Crab grass (level) (crab grass): 8 (Level 8: above 90% growth control rate)
effect on crop, Rice (level) (rice): 6 (Level 6: above 70% growth control rate)

effect on crop, Wheat (level) (wheat): 0
effect on crop, Corn (level) (corn): 0
SMILES: CCOC(=O)Oc1c(C(=O)c2ccc(C(F)(F)F)c(-n3ccc(C)n3)c2Cl)c(C)nn1C [Compound 078]
weed control effect, Bidens bipinnata (level) (bidens bipinnata): 10
weed control effect, Echinochloa (level) (echinochloa): 7 (Level 7: above 80% growth control rate)
weed control effect, Indian mallow (level) (Indian mallow): 10
weed control effect, Green foxtail (level) (foxtail): 7 (Level 7: above 80% growth control rate)
weed control effect, Rorippa indica (level) (rorippa indica): 0
weed control effect, Crab grass (level) (crab grass): 4 (Level 4: above 50% growth control rate)
effect on crop, Rice (level) (rice): 4 (Level 4: above 50% growth control rate)

effect on crop, Corn (level) (corn): 0
SMILES: CCn1nc(C2CC2)c(C(=O)c2ccc(C(F)(F)F)c(-n3cc(C)cn3)c2Cl)c1OC(=O)c1cn(C)nc1C [Compound 145]
weed control effect, Bidens bipinnata (level) (bidens bipinnata): 10
weed control effect, Echinochloa (level) (echinochloa): 10
weed control effect, Indian mallow (level) (Indian mallow): 4 (Level 4: above 50% growth control rate)
weed control effect, Green foxtail (level) (foxtail): 8 (Level 8: above 90% growth control rate)
weed control effect, Rorippa indica (level) (rorippa indica): 1 (Level 1: below 5% growth control rate)
weed control effect, Crab grass (level) (crab grass): 4 (Level 4: above 50% growth control rate)
effect on crop, Rice (level) (rice): 9 (Level 9: above 95% growth control rate)
effect on crop, Wheat (level) (wheat): 1 (Level 1: below 5% growth control rate)

effect on crop, Rice (level) (rice): 10
SMILES: CCn1nc(C2CC2)c(C(=O)c2ccc(C(F)(F)F)c(N3CCCC3=O)c2Cl)c1O [Compound 104]
weed control effect, Bidens bipinnata (level) (bidens bipinnata): 7 (Level 7: above 80% growth control rate)
weed control effect, Echinochloa (level) (echinochloa): 10
weed control effect, Indian mallow (level) (Indian mallow): 10
weed control effect, Green foxtail (level) (foxtail): 10
weed control effect, Rorippa indica (level) (rorippa indica): 10
weed control effect, Crab grass (level) (crab grass): 9 (Level 9: above 95% growth control rate)
effect on crop, Wheat (level) (wheat): 5 (Level 5: above 60% growth control rate)
effect on crop, Corn (level) (corn): 4 (Level 4: above 50% growth control rate)

effect on crop, Wheat (level) (wheat): 2 (Level 2: 5%-20% growth control rate)
SMILES: Cn1cc(C(=O)Oc2c(C(=O)c3ccc(C(F)(F)F)c(N4CCCCC4=O)c3Cl)cnn2C)cn1 [Compound 033]
weed control effect, Bidens bipinnata (level) (bidens bipinnata): 9 (Level 9: above 95% growth control rate)
weed control effect, Echinochloa (level) (echinochloa): 9 (Level 9: above 95% growth control rate)
weed control effect, Indian mallow (level) (Indian mallow): 10
weed control effect, Green foxtail (level) (foxtail): 10
weed control effect, Rorippa indica (level) (rorippa indica): 10
weed control effect, Crab grass (level) (crab grass): 9 (Level 9: above 95% growth control rate)
effect on crop, Rice (level) (rice): 8 (Level 8: above 90% growth control rate)
effect on crop, Corn (level) (corn): 3 (Level 3: above 20% growth control rate)
